Assay results reported in US8383637B2, “2-amino-quinazoline derivatives useful as inhibitors of β-secretase (BACE)” (Jansssen Pharmaceutica N.V., priority 2004, dated 2013).
Where two headings read alike, the source gives them in different places.

Tests used:
Type in all cases: biochemical
β-secretase(BACE) [1] = target: T1, β-secretase(BACE) (Homo sapiens, UniProt P56817); assay: BACE % Inhibition Assay ((Aedens)-[…]-(Dabcyl K-amide) substrate)
T1 construct: purchased Panvera
Description: The substrate stock solution was prepared in DMSO as a 10 mg/mL solution. The substrate working solution was prepared by diluting the 10 mg/mL stock solution with substrate assay buffer to a final concentration of 300 μg/mL. The β-secretase (BACE) working solution was prepared by diluting a 0.83 mg/mL BACE stock solution with enzyme assay buffer to a final concentration of 4 μg/mL.
Test compounds were dissolved in DMSO to 10 mM.
The screening procedure for this assay was as follows: 15 μL of BACE working solution was pipetted into each well of a 96-well plate. To each well was then pipetted 2 μL of test compound at the selected concentration. Test compound and BACE were then mixed with a pipettor and incubated for 20 min at room temperature. To each well was then added 10 μL of the substrate working solution. The plates were then incubated for 1 hour at room temperature.
The procedure for the blank was as follows. 15 μL of assay buffer was pipetted into each well to be used as a blank control. To each well was then added 2 μL of vehicle and 10 μL of substrate working solution. The plates were then incubated for 1 hour at room temperature.
The procedure for the positive control was as follows: 15 μl of BACE working solution was pipetted into each well to be used as a positive control. To each well was then pipetted 2 μL of vehicle. Vehicle and BACE were then mixed with a pipettor and incubated for 20 min at room temperature. To each well was then added 10 μL of the substrate working solution. The plates were then incubated for 1 hour at room temperature.
For test compounds, % inhibition was determined at each concentration as follows: […]

β-secretase(BACE) [2] = target: T1, β-secretase(BACE); assay: BACE Assay-2 (FS1 substrate, IC50 and Ki); conditions: procedure of Example 159, FS1 substrate; read-out: Ki μM (159)
β-secretase(BACE) [3] = target: T1, β-secretase(BACE); assay: BACE FS1% Inhibition Assay; conditions: FS1 substrate
Method in brief: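 Percent inhibition at each tested concentration, referenced to enzyme-free blank and vehicle-only positive control. Reaction: compound and BACE (4 μg/mL working stock) mixed 20 min at room temperature before FS1 substrate (300 μg/mL working stock), then 1 h at room temperature.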

[4] = 0.3 μM test compound, % error ±10%
[5] = 1 μM test compound, % error ±10%
[6] = 3 μM test compound, % error ±10%
[7] = 10 μM test compound, % error ±10%

T1 sequence (P56817 46-501): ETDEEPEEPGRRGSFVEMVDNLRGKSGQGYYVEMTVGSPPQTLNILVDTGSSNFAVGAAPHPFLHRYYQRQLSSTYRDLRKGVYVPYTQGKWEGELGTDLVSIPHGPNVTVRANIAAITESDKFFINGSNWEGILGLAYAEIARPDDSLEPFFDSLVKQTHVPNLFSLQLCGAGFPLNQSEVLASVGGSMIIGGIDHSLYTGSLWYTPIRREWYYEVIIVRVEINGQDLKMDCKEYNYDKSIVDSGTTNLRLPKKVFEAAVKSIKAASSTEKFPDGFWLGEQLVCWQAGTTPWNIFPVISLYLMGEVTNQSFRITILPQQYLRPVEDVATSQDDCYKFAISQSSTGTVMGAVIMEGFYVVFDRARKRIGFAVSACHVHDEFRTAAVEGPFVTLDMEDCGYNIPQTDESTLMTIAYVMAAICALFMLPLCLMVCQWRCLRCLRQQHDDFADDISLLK

| SMILES | % Inhibition (β-secretase(BACE) [1]; [4]) | % Inhibition (β-secretase(BACE) [1]; [5]) | % Inhibition (β-secretase(BACE) [1]; [6]) | % Inhibition (β-secretase(BACE) [1]; [7]) | further results |
| --- | --- | --- | --- | --- | --- |
| CCCCC(CC)C(=O)NCC(c1ccccc1)N1Cc2cc(Oc3ccccc3)ccc2N=C1N (stereo not shown) [Compound 341] | <30% | <30% | 72% |  |  |
| CN(C(=O)C1CCC(CN2Cc3cc(Oc4ccccc4)ccc3N=C2N)CC1)C1CCCCC1 (stereo not shown) [Compound 100] |  |  | <30% | <30% |  |
| CN(C(=O)[C@@H]1CCCC[C@@H]1N1Cc2cc(Oc3ccccc3)ccc2N=C1N)C1CCCCC1 [Compound 87] |  |  | <30% | <30% |  |
| NC1=Nc2ccc(Oc3ccccc3)cc2CN1C(CNC(=O)CCC1CCCC1)C1CCCCC1 (stereo not shown) [Compound 366] |  |  |  |  | Ki (β-secretase(BACE) [2]): 0.067 µM; inhibition at 0.3 µM (β-secretase(BACE) [1]; [4]): 64%; inhibition at 1 µM (β-secretase(BACE) [1]; [5]): 113%; inhibition at 3 µM (β-secretase(BACE) [1]; 3 μM test compound, % error ±10%, read-out: % Inhibition): 119% |
| CCCC(CCC)C(=O)NCc1cccc(CN2Cc3cc(Oc4ccccc4)ccc3N=C2N)c1 [Compound 338] | <30% | <30% | <30% |  |  |
| CN(C(=O)[C@@H]1CC[C@H](N2Cc3cc(Oc4ccccc4)ccc3N=C2N)C1)C1CCCCC1 [Compound 77] |  |  | <30% | <30% |  |
| CCOC(=O)CCN1Cc2cc(Oc3ccccc3)ccc2N=C1N [Compound 65] |  |  | <30% | <30% |  |
| CC(C)(C)C(=O)NCC(C1CCCCC1)N1Cc2cc(Oc3ccccc3)ccc2N=C1N (stereo not shown) [Compound 317] | <30% | 66% | 107% |  |  |
| CCCN1Cc2cc(Oc3cccc(N(C#N)CC4CCCCC4)c3)ccc2N=C1N [Compound 56] |  |  | 35% | 79% |  |
| CCCCC(CC)C(=O)NCc1cccc(CN2Cc3cc(Oc4ccccc4)ccc3N=C2N)c1 (stereo not shown) [Compound 339] | <30% | <30% | <30% |  |  |
| CC(C)(C)OC(=O)N1CCC(N2Cc3cc(Oc4ccccc4)ccc3N=C2N)C1 (stereo not shown) [Compound 93] |  |  | <30% | <30% |  |
| CCCC(CCC(=O)N(C)C1CCCCC1)N1Cc2cc(Oc3ccccc3)ccc2N=C1N (stereo not shown) [Compound 86] |  |  | 72% | 80% |  |
| CC(C)CCC(=O)NCC(C1CCCCC1)N1Cc2cc(Oc3ccccc3)ccc2N=C1N (stereo not shown) [Compound 388] | 107% | 119% | 119% |  |  |
| Cc1ccc(S(=O)(=O)NCCN2Cc3cc(Oc4ccccc4)ccc3N=C2N)cc1 [Compound 109] |  |  | <30% | 58% |  |
| NC1=Nc2ccc(Oc3ccccc3)cc2CN1C(CNC(=O)C1(c2ccc(Cl)cc2)CCCC1)C1CCCCC1 (stereo not shown) [Compound 390] | <30% | 50% | 102% |  |  |
| CCCC(CCCC(=O)N(CC)C1CCCCC1)N1Cc2cc(Oc3ccccc3)ccc2N=C1N (stereo not shown) [Compound 105] |  |  | <30% | <30% | % Inhibition (FS) 0.3 μM (β-secretase(BACE) [3]; 0.3 μM test compound): <30%; % Inhibition (FS) 1 μM (β-secretase(BACE) [3]; 1 μM test compound): <30%; % Inhibition (FS) 3 μM (β-secretase(BACE) [3]; 3 μM test compound): <30% |
| CN(C(=O)c1cccc(CN2Cc3cc(Oc4ccccc4)ccc3N=C2N)c1)C1CCCCC1 [Compound 62, 3-(2-Amino-6-phenoxy-4H-quinazolin-3-ylmethyl)-N-cyclohexyl-N-methyl-benzamide] |  |  |  |  | inhibition at 3 µM (β-secretase(BACE) [1]): 62%; inhibition at 10 µM (β-secretase(BACE) [1]): 82%; % Inhibition (β-secretase(BACE) [1]; 3 µM): 73%; % Inhibition (β-secretase(BACE) [1]; 10 µM): 82% |
| CN(C(=O)c1cccc(N2Cc3cc(Oc4ccccc4)ccc3N=C2N)c1)C1CCCCC1 [Compound 94] |  |  | <30% | <30% |  |
